Measurements: ChEMBL document CHEMBL5291721, “A preclinical secondary pharmacology resource illuminates target-adverse drug reaction associations of marketed drugs” (Nat Commun, 2023)

Columns and labels:
[1] = biological target: T1, 5-hydroxytryptamine receptor 2B (Homo sapiens, UniProt P41595); type: functional, cell-based
[2] = biological target: Sodium-dependent dopamine transporter (Homo sapiens, UniProt Q01959)
[3] = biological target: T2, Alpha-2B adrenergic receptor (Homo sapiens, UniProt P18089)
T2 sequence (P18089 whole entry): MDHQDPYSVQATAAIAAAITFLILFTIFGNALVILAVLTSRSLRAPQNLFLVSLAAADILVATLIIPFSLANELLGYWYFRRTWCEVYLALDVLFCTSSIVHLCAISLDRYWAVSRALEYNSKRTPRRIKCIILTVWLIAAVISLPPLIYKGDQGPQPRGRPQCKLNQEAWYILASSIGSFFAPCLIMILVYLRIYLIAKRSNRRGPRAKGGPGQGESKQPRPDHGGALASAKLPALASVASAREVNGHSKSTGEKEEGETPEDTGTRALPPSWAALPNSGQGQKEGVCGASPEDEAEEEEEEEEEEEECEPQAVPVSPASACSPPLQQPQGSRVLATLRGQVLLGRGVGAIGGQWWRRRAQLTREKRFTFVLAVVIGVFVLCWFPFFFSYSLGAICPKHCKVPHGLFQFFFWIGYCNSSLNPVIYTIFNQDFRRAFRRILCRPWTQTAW

B2 bradykinin receptor = biological target: T3, B2 bradykinin receptor (Homo sapiens, UniProt P30411)
T3 sequence (P30411 whole entry): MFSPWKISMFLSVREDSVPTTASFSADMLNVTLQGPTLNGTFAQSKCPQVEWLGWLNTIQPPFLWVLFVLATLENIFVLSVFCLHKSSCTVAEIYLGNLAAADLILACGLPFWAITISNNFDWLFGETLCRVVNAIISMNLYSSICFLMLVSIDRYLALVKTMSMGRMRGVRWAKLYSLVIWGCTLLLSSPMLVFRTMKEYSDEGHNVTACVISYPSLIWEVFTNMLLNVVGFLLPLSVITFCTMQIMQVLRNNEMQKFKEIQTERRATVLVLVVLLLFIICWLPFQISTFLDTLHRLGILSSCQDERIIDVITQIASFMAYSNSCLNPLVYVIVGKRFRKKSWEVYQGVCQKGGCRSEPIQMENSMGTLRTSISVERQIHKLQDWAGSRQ

[4] = biological target: T1, 5-hydroxytryptamine receptor 2B; type: functional, cell-based; remark: listed apart in the source
Mu-type opioid receptor = Mu-type opioid receptor (Homo sapiens, UniProt P35372)
[5] = biological target: 5-hydroxytryptamine receptor 2A (Homo sapiens, UniProt P28223); type: functional, cell-based
Melanocortin receptor 4 = Melanocortin receptor 4 (Homo sapiens, UniProt P32245)
Vasopressin V2 receptor = Vasopressin V2 receptor (Homo sapiens, UniProt P30518)
Progesterone receptor = biological target: T4, Progesterone receptor (Homo sapiens, UniProt P06401); type: functional
T4 sequence (P06401 whole entry): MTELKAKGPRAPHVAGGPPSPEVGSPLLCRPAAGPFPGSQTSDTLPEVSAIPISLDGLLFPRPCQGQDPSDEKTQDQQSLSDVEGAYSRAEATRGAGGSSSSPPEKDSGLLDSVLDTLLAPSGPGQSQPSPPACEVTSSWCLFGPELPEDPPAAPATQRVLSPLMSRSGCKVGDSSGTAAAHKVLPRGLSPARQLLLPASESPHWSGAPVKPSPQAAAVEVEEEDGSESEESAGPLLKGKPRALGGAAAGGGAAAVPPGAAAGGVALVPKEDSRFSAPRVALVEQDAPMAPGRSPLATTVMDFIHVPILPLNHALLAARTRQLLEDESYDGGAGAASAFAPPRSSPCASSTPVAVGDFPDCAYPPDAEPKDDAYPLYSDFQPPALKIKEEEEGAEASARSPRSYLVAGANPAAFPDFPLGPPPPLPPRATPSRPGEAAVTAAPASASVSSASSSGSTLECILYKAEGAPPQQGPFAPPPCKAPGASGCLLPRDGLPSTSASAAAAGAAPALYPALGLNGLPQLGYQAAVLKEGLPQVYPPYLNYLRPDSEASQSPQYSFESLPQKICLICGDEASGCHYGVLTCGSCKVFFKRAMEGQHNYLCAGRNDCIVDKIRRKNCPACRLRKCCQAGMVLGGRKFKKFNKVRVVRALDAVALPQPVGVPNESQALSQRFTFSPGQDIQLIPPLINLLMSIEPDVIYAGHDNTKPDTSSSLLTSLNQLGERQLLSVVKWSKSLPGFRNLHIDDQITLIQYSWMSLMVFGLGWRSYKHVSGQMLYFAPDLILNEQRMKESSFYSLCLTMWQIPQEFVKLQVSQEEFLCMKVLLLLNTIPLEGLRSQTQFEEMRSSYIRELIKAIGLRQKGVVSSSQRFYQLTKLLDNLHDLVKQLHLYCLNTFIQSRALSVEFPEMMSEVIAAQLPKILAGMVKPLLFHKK

Cannabinoid receptor 1 = Cannabinoid receptor 1 (Homo sapiens, UniProt P21554); type: functional, cell-based
Note: assay procedure not described here.

Melanocortin receptor 4, sequence (P32245 whole entry): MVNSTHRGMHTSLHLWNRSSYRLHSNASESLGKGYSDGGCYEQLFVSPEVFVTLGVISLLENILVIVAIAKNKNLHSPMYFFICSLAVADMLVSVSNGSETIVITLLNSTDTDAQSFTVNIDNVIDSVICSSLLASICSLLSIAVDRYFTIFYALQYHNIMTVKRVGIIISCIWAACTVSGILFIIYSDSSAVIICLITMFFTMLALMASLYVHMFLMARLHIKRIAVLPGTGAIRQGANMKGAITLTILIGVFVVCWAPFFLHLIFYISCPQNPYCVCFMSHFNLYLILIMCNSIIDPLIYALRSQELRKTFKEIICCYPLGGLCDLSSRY
Vasopressin V2 receptor, sequence (P30518 whole entry): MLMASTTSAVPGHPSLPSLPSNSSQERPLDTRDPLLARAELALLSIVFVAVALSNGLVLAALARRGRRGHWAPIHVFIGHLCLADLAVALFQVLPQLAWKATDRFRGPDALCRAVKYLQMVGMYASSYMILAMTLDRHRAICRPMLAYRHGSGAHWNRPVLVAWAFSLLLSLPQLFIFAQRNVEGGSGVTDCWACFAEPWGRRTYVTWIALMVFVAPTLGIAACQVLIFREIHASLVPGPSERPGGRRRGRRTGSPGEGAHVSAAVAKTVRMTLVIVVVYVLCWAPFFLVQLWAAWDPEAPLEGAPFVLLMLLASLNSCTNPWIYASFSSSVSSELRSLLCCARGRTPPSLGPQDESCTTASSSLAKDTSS
T1 sequence (P41595 whole entry): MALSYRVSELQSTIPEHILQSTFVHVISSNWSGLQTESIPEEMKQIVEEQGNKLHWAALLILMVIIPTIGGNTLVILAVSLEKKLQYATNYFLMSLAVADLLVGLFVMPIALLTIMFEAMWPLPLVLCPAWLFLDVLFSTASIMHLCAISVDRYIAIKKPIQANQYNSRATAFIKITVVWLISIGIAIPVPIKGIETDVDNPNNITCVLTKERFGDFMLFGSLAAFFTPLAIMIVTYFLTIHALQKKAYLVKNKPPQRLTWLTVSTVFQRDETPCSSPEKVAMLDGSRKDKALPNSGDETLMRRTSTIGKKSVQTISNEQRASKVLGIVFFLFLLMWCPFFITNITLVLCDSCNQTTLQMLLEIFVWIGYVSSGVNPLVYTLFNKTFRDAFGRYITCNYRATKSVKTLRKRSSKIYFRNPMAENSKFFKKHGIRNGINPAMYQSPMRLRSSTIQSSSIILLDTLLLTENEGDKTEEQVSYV
5-hydroxytryptamine receptor 2A, sequence (P28223 whole entry): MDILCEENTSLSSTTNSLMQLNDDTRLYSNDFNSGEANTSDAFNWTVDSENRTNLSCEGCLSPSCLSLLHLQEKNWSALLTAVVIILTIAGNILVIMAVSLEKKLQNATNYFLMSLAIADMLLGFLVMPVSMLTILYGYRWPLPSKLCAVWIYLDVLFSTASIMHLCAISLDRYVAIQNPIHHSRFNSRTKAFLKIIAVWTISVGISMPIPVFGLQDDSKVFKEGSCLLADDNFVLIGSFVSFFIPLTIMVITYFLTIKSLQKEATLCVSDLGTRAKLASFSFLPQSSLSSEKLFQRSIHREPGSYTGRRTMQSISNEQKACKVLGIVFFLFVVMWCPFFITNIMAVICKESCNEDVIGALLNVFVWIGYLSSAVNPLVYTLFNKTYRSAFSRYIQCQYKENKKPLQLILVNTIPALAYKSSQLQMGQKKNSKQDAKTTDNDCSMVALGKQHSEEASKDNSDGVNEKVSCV
Cannabinoid receptor 1, sequence (P21554 whole entry): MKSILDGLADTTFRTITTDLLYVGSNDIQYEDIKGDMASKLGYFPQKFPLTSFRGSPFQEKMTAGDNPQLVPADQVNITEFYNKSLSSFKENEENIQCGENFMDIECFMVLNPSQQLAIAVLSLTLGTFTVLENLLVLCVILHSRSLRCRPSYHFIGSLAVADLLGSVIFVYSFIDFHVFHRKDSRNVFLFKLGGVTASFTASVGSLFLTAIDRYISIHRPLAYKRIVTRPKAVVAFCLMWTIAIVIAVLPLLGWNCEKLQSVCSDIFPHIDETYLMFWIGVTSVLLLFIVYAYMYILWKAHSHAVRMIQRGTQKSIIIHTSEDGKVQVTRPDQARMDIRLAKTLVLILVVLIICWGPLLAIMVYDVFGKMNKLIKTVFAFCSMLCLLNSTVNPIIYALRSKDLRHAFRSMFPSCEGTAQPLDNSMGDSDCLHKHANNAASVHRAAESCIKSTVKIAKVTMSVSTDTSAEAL
Mu-type opioid receptor, sequence (P35372 whole entry): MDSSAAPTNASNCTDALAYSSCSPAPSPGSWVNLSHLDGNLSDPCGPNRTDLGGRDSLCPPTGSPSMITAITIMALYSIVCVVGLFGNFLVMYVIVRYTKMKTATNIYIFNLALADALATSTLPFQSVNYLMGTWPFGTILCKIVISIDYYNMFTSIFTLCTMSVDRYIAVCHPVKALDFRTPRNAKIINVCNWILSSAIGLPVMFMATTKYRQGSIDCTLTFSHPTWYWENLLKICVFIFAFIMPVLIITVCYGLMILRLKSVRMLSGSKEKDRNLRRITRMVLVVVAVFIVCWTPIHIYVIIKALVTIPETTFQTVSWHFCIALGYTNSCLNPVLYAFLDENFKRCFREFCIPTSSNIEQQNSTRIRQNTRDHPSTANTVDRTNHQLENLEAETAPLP
Sodium-dependent dopamine transporter, sequence (Q01959 whole entry): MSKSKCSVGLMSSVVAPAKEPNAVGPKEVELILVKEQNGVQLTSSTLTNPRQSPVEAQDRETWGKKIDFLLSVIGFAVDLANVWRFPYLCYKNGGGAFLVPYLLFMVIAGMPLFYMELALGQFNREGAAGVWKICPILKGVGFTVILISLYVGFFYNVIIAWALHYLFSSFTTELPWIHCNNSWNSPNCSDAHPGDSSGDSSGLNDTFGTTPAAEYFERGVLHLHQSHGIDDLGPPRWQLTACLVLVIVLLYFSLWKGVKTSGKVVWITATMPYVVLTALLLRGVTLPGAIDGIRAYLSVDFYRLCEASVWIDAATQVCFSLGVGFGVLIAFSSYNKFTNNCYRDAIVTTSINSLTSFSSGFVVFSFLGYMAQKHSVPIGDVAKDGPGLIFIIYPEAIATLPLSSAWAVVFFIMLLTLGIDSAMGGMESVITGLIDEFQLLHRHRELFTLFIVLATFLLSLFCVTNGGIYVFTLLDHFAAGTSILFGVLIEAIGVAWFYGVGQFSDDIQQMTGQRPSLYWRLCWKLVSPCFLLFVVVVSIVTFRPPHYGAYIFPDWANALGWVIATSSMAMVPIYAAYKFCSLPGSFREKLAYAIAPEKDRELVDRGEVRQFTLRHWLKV

Row | AC50 [3] | AC50 (B2 bradykinin receptor) | AC50 [4] | AC50 (Mu-type opioid receptor) | AC50 [5] | AC50 (Melanocortin receptor 4) | AC50 (Vasopressin V2 receptor) | AC50 (Cannabinoid receptor 1) | Compound | AC50 [1] | AC50 [2] | AC50 (Progesterone receptor)
1 | – | – | – | – | – | – | – | – | CC(C)(S)[C@@H](N)C(=O)O [PENICILLAMINE] | > 30 µM | > 30 µM | –
2 | – | – | – | – | – | – | – | – | CN(C)CCn1nnnc1SCC1=C(C(=O)O)N2C(=O)[C@@H](NC(=O)Cc3csc(N)n3)[C@H]2SC1 [CEFOTIAM] | > 30 µM | > 30 µM | –
3 | – | – | – | – | – | – | – | – | CCOC(=O)[C@H](CCc1ccccc1)N[C@@H](C)C(=O)N1[C@H](C(=O)O)C[C@H]2CCCC[C@@H]21 [TRANDOLAPRIL] | > 30 µM | > 30 µM | –
4 | – | – | – | – | – | – | – | – | COC(c1ccccc1)(c1ccccc1)[C@H](Oc1nc(C)cc(C)n1)C(=O)O [AMBRISENTAN] | > 30 µM | > 30 µM | –
5 | – | > 30 µM | – | – | – | > 30 µM | > 30 µM | > 30 µM | CC1=C(C(=O)O)N2C(=O)[C@@H](NC(=O)[C@H](N)c3ccccc3)[C@H]2SC1 [CEPHALEXIN ANHYDROUS] | – | – | –
6 | > 10 µM | > 30 µM | > 10 µM | > 30 µM | > 30 µM | > 30 µM | > 30 µM | > 30 µM | CN1C(C(=O)Nc2ccccn2)=C(O)c2sc(Cl)cc2S1(=O)=O [LORNOXICAM] | – | – | –
7 | 0.292 µM | > 30 µM | > 30 µM | > 30 µM | – | > 30 µM | > 30 µM | > 30 µM | Clc1ccc2nsnc2c1NC1=NCCN1 [TIZANIDINE] | – | – | –
8 | > 30 µM | > 30 µM | > 30 µM | – | > 30 µM | – | > 30 µM | > 30 µM | CC(=O)NCCCS(=O)(=O)O [ACAMPROSATE] | – | – | > 30 µM
9 | 17 µM | > 30 µM | 11 µM | – | > 30 µM | – | > 30 µM | – | COc1ccccc1OCC(O)CN1CCN(CC(=O)Nc2c(C)cccc2C)CC1 (stereo not given) [RANOLAZINE] | – | – | > 30 µM
10 | – | > 10 µM | > 10 µM | > 30 µM | – | > 10 µM | > 10 µM | – | CN(C)/N=N/c1[nH]cnc1C(N)=O [DACARBAZINE] | – | – | > 10 µM
11 | – | – | – | – | – | – | – | – | C[C@]12CC[C@@H]3c4ccc(O)cc4CC[C@H]3[C@@H]1C[C@@H](O)[C@@H]2O [ESTRIOL] | > 30 µM | 28.7 µM | –
12 | – | > 30 µM | > 30 µM | > 10 µM | – | > 30 µM | > 30 µM | > 30 µM | CCC(C)n1ncn(-c2ccc(N3CCN(c4ccc(OCC5COC(Cn6cncn6)(c6ccc(Cl)cc6Cl)O5)cc4)CC3)cc2)c1=O (stereo not given) [ITRACONAZOLE] | – | – | > 30 µM
13 | > 30 µM | > 10 µM | > 10 µM | > 30 µM | > 10 µM | > 10 µM | > 10 µM | > 30 µM | Nc1ccn([C@H]2CC[C@@H](CO)O2)c(=O)n1 [ZALCITABINE] | – | – | –
14 | > 10 µM | > 10 µM | > 10 µM | > 30 µM | > 10 µM | > 10 µM | > 10 µM | – | NS(=O)(=O)Cc1noc2ccccc12 [ZONISAMIDE] | – | – | > 10 µM
15 | > 30 µM | > 30 µM | > 30 µM | – | > 30 µM | – | > 30 µM | – | CCCCN1C[C@H](O)[C@@H](O)[C@H](O)[C@H]1CO | – | – | > 30 µM
16 | – | > 10 µM | > 10 µM | > 30 µM | – | > 10 µM | > 10 µM | – | Clc1ccc(C(c2ccccc2Cl)C(Cl)Cl)cc1 (stereo not given) [MITOTANE] | – | – | –
17 | 8.9 µM | > 30 µM | > 30 µM | – | > 30 µM | – | > 30 µM | > 30 µM | COc1cc2nc(N(C)CCCNC(=O)C3CCCO3)nc(N)c2cc1OC (stereo not given) [ALFUZOSIN] | – | – | > 30 µM

Row | Compound | AC50 [3] | AC50 (B2 bradykinin receptor) | AC50 [4] | AC50 (Mu-type opioid receptor) | AC50 [5] | AC50 (Melanocortin receptor 4) | AC50 (Vasopressin V2 receptor) | AC50 (Cannabinoid receptor 1) | AC50 [1] | AC50 [2] | AC50 (Progesterone receptor)
18 | CN1C(=O)CCS(=O)(=O)C1c1ccc(Cl)cc1 (stereo not given) [CHLORMEZANONE] | > 10 µM | > 10 µM | > 10 µM | > 30 µM | > 10 µM | > 10 µM | > 10 µM | – | – | – | > 10 µM
19 | C=CCc1ccccc1OCC(O)CNC(C)C (stereo not given) [ALPRENOLOL] | > 30 µM | 14 µM | 16 µM | – | > 30 µM | – | > 30 µM | > 30 µM | > 0.3 µM | > 0.3 µM | > 30 µM
20 | O=C(O[C@H]1C[C@H]2CC[C@@H](C1)[N+]21CCCC1)C(O)(c1ccccc1)c1ccccc1 [TROSPIUM] | > 30 µM | > 30 µM | > 30 µM | – | > 30 µM | > 30 µM | > 30 µM | – | – | – | > 30 µM
21 | Cc1cn([C@H]2C=C[C@@H](CO)O2)c(=O)[nH]c1=O [STAVUDINE] | – | > 30 µM | > 10 µM | > 30 µM | – | > 30 µM | > 30 µM | > 30 µM | > 30 µM | > 30 µM | –
22 | O=P1(NCCCl)OCCCN1CCCl (stereo not given) [IFOSFAMIDE] | – | > 30 µM | > 30 µM | – | – | > 30 µM | > 30 µM | – | – | – | > 30 µM
23 | CCCSc1ccc2nc(NC(=O)OC)[nH]c2c1 [ALBENDAZOLE] | – | > 10 µM | > 10 µM | > 30 µM | – | > 10 µM | > 10 µM | – | – | – | > 10 µM
24 | COc1ccc(CC(C)(C)NC[C@H](O)c2cc(O)cc3c2OCC(=O)N3)cc1 [OLODATEROL] | > 30 µM | – | 6.65 µM | > 30 µM | 12.8 µM | – | – | > 30 µM | – | – | > 30 µM
25 | CC1(C)NC(=O)N(c2ccc([N+](=O)[O-])c(C(F)(F)F)c2)C1=O [NILUTAMIDE] | > 30 µM | > 30 µM | > 30 µM | – | > 30 µM | > 30 µM | > 30 µM | – | > 30 µM | > 30 µM | > 30 µM
26 | Cc1cccc(Nc2ccccc2C(=O)O)c1C [MEFENAMIC ACID] | – | > 10 µM | > 10 µM | > 30 µM | – | > 10 µM | > 10 µM | – | > 30 µM | > 30 µM | > 10 µM
